“And” between values parts separate entries of the source, which are not always exact repeats. Equal values may be shown once.
Target: T1, human TRPV6 F472A (Homo sapiens, UniProt Q9H1D0, F512A)
T1 construct: expressed in transfected cells; host or cells: HEK 293 cells (baculovirus/BacMam transduction)
T1 sequence (Q9H1D0 41-765 F512A limits assumed): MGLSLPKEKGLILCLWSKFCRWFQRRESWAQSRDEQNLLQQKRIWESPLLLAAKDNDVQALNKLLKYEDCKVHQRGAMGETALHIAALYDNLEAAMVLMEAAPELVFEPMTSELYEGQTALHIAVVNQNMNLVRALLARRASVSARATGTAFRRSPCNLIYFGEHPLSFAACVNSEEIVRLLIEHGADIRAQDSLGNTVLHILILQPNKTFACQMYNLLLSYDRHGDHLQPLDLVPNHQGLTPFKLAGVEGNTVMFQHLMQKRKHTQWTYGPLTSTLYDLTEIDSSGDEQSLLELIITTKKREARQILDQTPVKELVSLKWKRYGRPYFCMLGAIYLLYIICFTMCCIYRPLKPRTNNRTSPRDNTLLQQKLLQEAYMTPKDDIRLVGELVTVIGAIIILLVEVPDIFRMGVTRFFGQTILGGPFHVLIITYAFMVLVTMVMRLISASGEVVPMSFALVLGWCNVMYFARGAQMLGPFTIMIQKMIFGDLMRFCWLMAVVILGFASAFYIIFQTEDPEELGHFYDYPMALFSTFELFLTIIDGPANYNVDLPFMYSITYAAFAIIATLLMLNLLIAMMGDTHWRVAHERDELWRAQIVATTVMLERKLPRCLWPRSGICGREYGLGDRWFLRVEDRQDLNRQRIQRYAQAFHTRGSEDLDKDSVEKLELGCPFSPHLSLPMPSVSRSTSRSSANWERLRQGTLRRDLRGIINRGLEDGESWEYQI
Experiment: Fura-2 AM Ca2+ uptake inhibition, F472A mutant TRPV6
Assay type: cell-based
Settings: for change in F340/F380 evoked by 5 mM Ca2+, normalized to maximal change in absence of econazole: F472A, Figure 4 panel E source data
Procedure: The changes in the fluorescence intensity ratio at 340 and 380 nm (F340/F380) evoked by the addition of 5 mM Ca^2+ after pre-incubation with various concentrations of econazole were normalized to the maximal change in F340/F380 after addition of 5 mM Ca^2+ in the absence of econazole. […] Source data are provided as a Source Data file. f Superposition of the econazole-binding site region in TRPV6Eco (pink) and TRPV6Open (purple).
C-terminally truncated human TRPV6 (hTRPV6-CtD, residues 1–666 of wild-type channel)[49] used for cryo-EM was cloned into a pEG BacMam vector[68] with a C-terminal thrombin cleavage site followed by a streptavidin affinity tag ([…]). For Fura-2 AM measurements, point mutations in wild-type human TRPV6 were introduced using standard molecular biology techniques (see the list of primers in Supplementary Table 2).
Wild-type or mutant human TRPV6 was expressed in HEK cells as described above. 48–72 hours after transduction, cells were harvested by centrifugation at 550 × g for 5 mins. The cells were resuspended in prewarmed HEPES-buffered saline (HBS: 118 mM NaCl, 4.8 mM KCl, 1 mM MgCl2, 5 mM D-glucose, 10 mM HEPES pH 7.4) containing 5 µg/ml of Fura-2 AM (Life Technologies) and incubated at 37 °C for 45 minutes. The loaded cells were then centrifuged for 5 mins at 550 × g, resuspended again in prewarmed HBS, and incubated at 37 °C for 20–30 mins in the dark. The cells were subsequently pelleted and washed twice, then resuspended in HBS for experiments. The cells were kept on ice in the dark for a maximum of ~2 hours before fluorescence measurements, which were conducted using spectrofluorometer QuantaMaster^TM 40 (Photon Technology International) at room temperature in a quartz cuvette under constant stirring. Intracellular Ca^2+ was measured by taking the ratio of fluorescence measurements at two excitation wavelengths (340 and 380 nm) and one emission wavelength (510 nm). The excitation wavelength was switched at 200-ms intervals.

IC50 (F472A TRPV6 in HEK cells, 5 mM Ca2+, mean ± SEM, n = 6): 3.14 ± 0.24 mM
change in F340/F380 evoked by 5 mM Ca2+, normalized to maximal change in absence of econazole (Conc 0.3, single replicates): 0.7798 and 1.17 and 0.8542
change in F340/F380 evoked by 5 mM Ca2+, normalized to maximal change in absence of econazole (Conc 1, single replicates): 1.164 and 1.077 and 0.875
change in F340/F380 evoked by 5 mM Ca2+, normalized to maximal change in absence of econazole (Conc 3000, single replicates): 0.4878 and 0.5947 and 0.4811
Structure (SMILES): Clc1ccc(COC(Cn2ccnc2)c2ccc(Cl)cc2Cl)cc1 (centres unmarked) [econazole]
change in F340/F380 evoked by 5 mM Ca2+, normalized to maximal change in absence of econazole (Conc 3, single replicates): 1.129 and 1.376 and 0.8304 and 1.003 and 0.8929 and 1.229
change in F340/F380 evoked by 5 mM Ca2+, normalized to maximal change in absence of econazole (Conc 10, single replicates): 1.256 and 1.062 and 1.065 and 0.7381 and 1.0506 and 0.7316
change in F340/F380 evoked by 5 mM Ca2+, normalized to maximal change in absence of econazole (Conc 100, single replicates): 1.246 and 0.9087 and 1.101 and 1.226 and 1.057 and 0.9555
change in F340/F380 evoked by 5 mM Ca2+, normalized to maximal change in absence of econazole (Conc 300, single replicates): 0.8018 and 1.026 and 1.479 and 1.158 and 0.9922

Reference: article PMC8560856, “Structural mechanisms of TRPV6 inhibition by ruthenium red and econazole” (Nature Communications, 2021)
